Experiment: Viscosity of paste comprising BCG-CWS, co-axial bicylindrical viscometer
Assay type: physicochemical
Conditions: unit not given
Method: “Viscosity” as used herein means a value determined by dynamic viscoelasticity measurement, for example, values obtained using a co-axial bicylindrical viscometer. In the present invention, viscosity may be measured using a co-axial bicylindrical viscometer manufactured by Rheology Co., Ltd (Model MR-300, Soliquid meter) at 25° C. under nitrogen atmosphere. One poise represents 0.1 Pa·s (pascal.sec).
The viscosity of the paste was measured at 25° C. using a co-axial bicylindrical viscometer manufactured by Rheology Co., Ltd (Model MR-300, Soliquid meter). The viscosity was measured to be 0.545 poise.

For `CC(C)CCCC(C)CCCC(C)CCCCC(C)CCCC(C)CCCC(C)C` (stereo not shown) [squalane], the viscosity was 0.236.

Source: patent US20050250175A1, “Bacterial cell wall skeleton component preparaion” (priority 2002, published 2005)
